{
  "source": "patent US6716422B1",
  "about": "“Vaccine adjuvants for immunotherapy of melanoma” (ARCH Development Corporation, priority 1998, dated 2004)",
  "key": {"[1]": {"tested_on": "refractory metastatic melanoma", "test": "Human vaccination study: clinical outcome", "assay_type": "in vivo", "conditions": "one line per patient", "from_the_text": "Evaluation of tumor regression is a secondary endpoint in this study. Tumor masses are characterized carefully with bidimensional measurements.\nCriteria for a Partial Response (PR): 50% reduction in the sum of the product of the largest perpendicular diameters of the indicator lesions identified prior to therapy.\nCriteria for a Complete Response (CR): total disappearance of all evidence of tumor without appearance of new lesions.\nCriteria for Progressive Disease (PD): appearance of new lesions; and/or fifty percent increase in the sum of the product of the largest perpendicular diameters of the indicator lesions.\nCriteria for Stable Disease (SD): Failure to meet the criteria for a Partial Response, Complete Response, or Progressive Disease."}, "[2]": {"tested_on": "melanoma cell lines expressing MAGE-3", "conditions": "activated B cells or dendritic cells, HLA-A2 donor; only if IL-12 included during initial stimulation; cited from earlier work"}, "[3]": {"tested_on": "peptide-specific, IFN-γ-producing CD8+ T cells", "test": "Human vaccination study: peptide-specific T cell response", "conditions": "one line per patient", "quoted_text": "Following immunization, assays for peptide specific CTL activity and cytokine production, in particular IFN-γ were conducted.\nFor each vaccination, 100 cc heparinized blood was obtained and PBMC isolated by Lymphoprep centrifugation. A portion of cells was set aside and separated into CD8+ and CD8-fractions for cryopreservation.\nPulsed PBMC were irradiated (2000 rad), centrifuged, and resuspended in 2 cc DPBS for injection.\nInjection of pulsed PBMC was performed subcutaneously, divided between 2 sites, either in upper arms or proximal legs.\nrhIL-12, at the assigned dose level (ng/kg), was injected subcutaneously near one of the two vaccine sites.\nThe entire procedure was repeated every 3 weeks, with clinical reevaluation every 3 cycles.\nIn vitro expansion of CD8^+ T cells for testing was performed using minimal activation conditions: peptide-pulsed CD8-negative cells as APCs, only 10 U/ml rIL-2 added on day 2 of each stimulation, with one 6-day stimulation followed by a second 4-5 day stimulation."}, "[4]": {"test": "Relative hydrophilicity/solubility of tumor peptides", "assay_type": "physicochemical", "protocol": "Peptides encoded by several of the unique tumor antigens of the tum^− variants have been defined, such as the P198 peptide used in one of the examples herein. […] Therefore, initial peptide-based immunization studies were performed using the more soluble P198 peptide. Information gained was then examined using P1A peptide as well. Studies with P1A are important in order to measure efficacy of immunization in vivo in terms of protection against living tumor challenge and regression of pre-established tumors. These types of studies would not be possible with P198 because that tumor is rejected spontaneously."}, "[5]": {"conditions": "cited from earlier work"}, "[6]": {"tested_on": "advanced renal cell carcinoma", "conditions": "cited from earlier work"}, "[7]": {"conditions": "cited from earlier work", "remark": "listed apart in the source"}, "[8]": {"conditions": "room temperature; cited from earlier work"}},
  "note": "Ends that are not written are not given here.",
  "data": [
    {"substance": "FLWGPRALV [Mage3]", "values": [
      {"measurement": "Clinical Outcome", "setting": "[1]; IL-12 dose 0", "value": "PD (appearance of new lesions; and/or fifty percent increase in the sum of the product of the largest perpendicular diameters of the indicator lesions)"},
      {"measurement": "Clinical Outcome", "setting": "[1]; IL-12 dose 30 ng/kg", "value": "PD (appearance of new lesions; and/or fifty percent increase in the sum of the product of the largest perpendicular diameters of the indicator lesions)"},
      {"measurement": "Clinical Outcome", "setting": "[1]; IL-12 dose 100 ng/kg", "value": "PD (appearance of new lesions; and/or fifty percent increase in the sum of the product of the largest perpendicular diameters of the indicator lesions)"},
      {"measurement": "Induction of specific CTL", "setting": "[2]", "value": "specific CTL induced"},
      {"measurement": "Evidence Immunized?", "setting": "[3]; IL-12 dose 0", "value": "No"},
      {"measurement": "Evidence Immunized?", "setting": "[3]; IL-12 dose 30 ng/kg", "value": "Yes"}
    ]},
    {"substance": "KYQAVTTTL [P198 peptide]", "values": [
      {"measurement": "Hydrophilicity relative to P1A peptide", "setting": "[4]", "value": "more hydrophilic than the P1A peptide"}
    ]},
    {"substance": "rhIL-12: recombinant human interleukin-12, manufactured by the Genetics Institute", "values": [
      {"measurement": "Toxicities", "setting": "[5]; intravenous, 3-1000 ng/kg/day", "value": "transient cytopenias (nadirs occurring 2-5 days after treatment), reversible increases of transaminases and bilirubin, transient hyperglycemia, stomatitis, and capillary leak syndrome"},
      {"measurement": "Maximally tolerated dose", "setting": "[5]; intravenous, single test dose, 2 wk later daily for 5 days, every 3 wk", "value": 500, "unit": "ng/kg/day"},
      {"measurement": "Tumor responses", "setting": "[5]; patients with various malignancies", "value": "several tumor responses observed"},
      {"measurement": "Patients requiring hospitalization for adverse events", "setting": "[6]; 500 ng/kg/day intravenously 5 times per wk, 16 day rest", "value": "12 of the 17"},
      {"measurement": "Deaths attributed to rhIL-12", "setting": "[6]; 500 ng/kg/day intravenously", "value": "Two"},
      {"measurement": "Patient deaths", "setting": "[6]; 500 ng/kg/day intravenously", "value": 4},
      {"measurement": "Tolerability", "setting": "[7]; in vivo", "value": "well tolerated"},
      {"measurement": "Renal cell carcinoma patients with a minor response", "setting": "[7]; subcutaneous schedule", "value": "Two"},
      {"measurement": "Time within which unit doses in a syringe must be used", "setting": "[8]", "value": "≤ 4", "unit": "h"}
    ]}
  ]
}
